Test results published in paper PMC9811213, “Glutamine deamidation does not increase the immunogenicity of C-peptide in people with type 1 diabetes” (Journal of Translational Autoimmunity, 2022).

Assays:
[1] = system: Jurkat line (ACD4_38) expressing a C-peptide specific TCR; assay: IL-2 secretion (ELISA) by TCR-transduced Jurkat line, peptide titration; format: cell-based, human; settings: clone ACD4_38, two independent experiments
Protocol: (§1) TCR-transduced T cells were cultured, in triplicate, in cRPMI/5% FBS at 2 × 10^4/well with an equal number of EBV-transformed B cells (see Supplementary Table 3) and different peptides (Purar Chemicals). See Supplementary Table 6 for a full list of peptides used in this study. The positive control was PMA (10 ng/mL) and ionomycin (500 ng/mL) in culture media. Negative controls had all cells, but no peptide. After overnight culture supernatant was collected for IL-2 ELISA.
(§2) ELISAs were performed using the ELISA MAX™ Deluxe set Human IL-2 (BioLegend) as per the manufacturer's instructions. Briefly, 96-well ELISA plates (Greiner Bio-One) were coated with 100μL/well of purified anti-human IL-2 antibody diluted 1:200. […] The reaction was stopped by the addition of 2 M H2SO4 solution (BioLegend) and optical density (OD) measured using a FLUOstar Omega microplate reader (BMG LabTech). The amount of IL-2 secreted was determined using a linear regression of all OD values (minus the background) of the standard curve. […]
To determine if C-peptide specific TCRs were more sensitive to Q to E variants of C-peptide we tested graded concentrations of wild type C-peptide and five deamidated variants. […] To compare the relative potency of the Q to E substituted peptides the responses were calculated as fold change relative to full-length, WT C-peptide (Fig. 2D). […]

[2] = system: 18 Jurkat T-cell lines expressing C-peptide specific TCRs; assay: IL-2 secretion (ELISA) by panel of 18 TCR-transduced Jurkat lines, peptide titration; format: cell-based, human; settings: Mann-Whitney test, Fig. 2H
Protocol: as §1
as §2, with “instructions.” for “instructions. Briefly, 96-well ELISA plates (Greiner Bio-One) were coated with 100μL/well of purified anti-human IL-2 antibody diluted 1:200.”
Fig. 2 C-peptide specific TCR responses to deamidated C-peptide variants (A) Each peptide is referred to by the position, within C-peptide of the glutamine (Q), in bold, to glutamic acid (E), in red text, substitutions. […] (C) The EC50 for each peptide was calculated the and the EC50 from two independent experiments are shown. […] Statistical significance was determined using the Mann-Whitney test (ns, not significant, […], p < 0.05, **p < 0.01, ***p < 0.001). […]

Row | Stimulation compared with WT C-peptide and the other single substituted peptides (EC50, IL-2) [1] | Difference in fold change in EC50 (relative to full-length C-peptide) between clones with overlapping and non-overlapping epitopes [2] | Sequence
1 | dramatically less stimulatory | – | EAEDLEVGEVELGGGPGAGSLEPLALEGSLE [QallE, C-peptide with all four glutamines substituted for glutamic acid]
2 | dramatically less stimulatory | – | EAEDLQVGEVELGGGPGAGSLQPLALEGSLQ [Q9E, C-peptide variant with glutamine 9 substituted for glutamic acid]
3 | – | no difference | EAEDLQVGQVELGGGPGAGSLQPLALEGSLE [Q31E, C-peptide variant with glutamine 31 substituted for glutamic acid]
